The source of these data is patent US7592345B2, “Piperazine and [1,4]diazepan derivatives as NK antagonists” (Hoffmann-La Roche Inc., priority 2007, dated 2009).

The target in this assay is T1, recombinant human NK3 receptor (Homo sapiens, UniProt P29371).
T1 construct: expressed in transfected cells; host or cells: HEK293 cells (transient expression), membranes
T1 sequence (P29371 1-465): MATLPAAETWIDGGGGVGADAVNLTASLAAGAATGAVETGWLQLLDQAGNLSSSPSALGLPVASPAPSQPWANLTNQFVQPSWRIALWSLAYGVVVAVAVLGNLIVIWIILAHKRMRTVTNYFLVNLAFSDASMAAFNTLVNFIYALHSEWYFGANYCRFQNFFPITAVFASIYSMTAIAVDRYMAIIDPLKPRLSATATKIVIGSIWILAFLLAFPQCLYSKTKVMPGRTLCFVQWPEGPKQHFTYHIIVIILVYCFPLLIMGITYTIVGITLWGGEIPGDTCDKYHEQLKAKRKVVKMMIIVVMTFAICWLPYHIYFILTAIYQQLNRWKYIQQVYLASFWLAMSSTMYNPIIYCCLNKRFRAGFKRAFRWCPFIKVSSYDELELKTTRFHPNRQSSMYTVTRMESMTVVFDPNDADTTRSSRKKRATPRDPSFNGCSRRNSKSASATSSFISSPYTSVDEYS
Description: [3H]SR142801 competition binding assay. The conditions noted are these: [3H]SR142801, membranes from HEK293 cells transiently expressing recombinant human NK3 receptor; read-out: hNK3 Ki. As to the method:
[^3H]SR142801 Competition Binding Assay
hNK3 receptor binding experiment were performed using [^3H]SR142801 (Catalog No. TRK1035, specific activity: 74.0 Ci/mmol, Amersham, GE Healthcare UK limited, Buckinghamshire, UK) and membrane isolated from HEK293 cells transiently expressing recombinant human NK3 receptor. After thawing, the membrane homogenates were centrifuged at 48,000×g for 10 min at 4° C., the pellets were resuspended in the 50 mM Tris-HCl, 4 mM MnCl2, 1 μM phosphoramidon, 0.1% BSA binding buffer at pH 7.4 to a final assay concentration of 5 μg protein/well. For inhibition experiments, membranes were incubated with [^3H]SR142801 at a concentration equal to KD value of radioligand and 10 concentrations of the inhibitory compound (0.0003-10 μM) (in a total reaction volume of 500 μl) for 75 min at room temperature (RT). At the end of the incubation, membranes were filtered onto unitfilter (96-well white microplate with bonded GF/C filter preincubated 1 h in 0.3% PEI+0.3% BSA, Packard BioScience, Meriden, Conn.) with a Filtermate 196 harvester (Packard BioScience) and washed 4 times with ice-cold 50 mM Tris-HCl, pH 7.4 buffer. Nonspecific binding was measured in the presence of 10 μM SB222200 for both radioligands. The radioactivity on the filter was counted (5 min) on a Packard Top-count microplate scintillation counter with quenching correction after addition of 45 μl of microscint 40 (Canberra Packard S. A., Zürich, Switzerland) and shaking for 1 h. Inhibition curves were fitted according to the Hill equation: y=100/(1+(x/IC50)^nH), where nH=slope factor using Excel-fit 4 software (Microsoft). IC50 values were derived from the inhibition curve and the affinity constant (Ki) values were calculated using the Cheng-Prussoff equation Ki=IC50/(1+[L]/KD) where [L] is the concentration of radioligand and KD is its dissociation constant at the receptor, derived from the saturation isotherm. All experiments were performed in duplicate and the mean±standard error (SEM) of the individual Ki values was calculated.
`COc1cc(CN(C)C(=O)C(C)(CCN2CCN(S(C)(=O)=O)[C@@H](C)C2)c2ccc(Cl)c(Cl)c2)ccc1OC(F)F` (stereo partly drawn) [Example 66, 2-(3,4-Dichloro-phenyl)-N-(4-difluoromethoxy-3-methoxy-benzyl)-4-((S)-4-methanesulfonyl-3-methyl-piperazin-1-yl)-2,N-dimethyl-butyramide]: the Ki (as a rule, the equilibrium dissociation constant of an inhibitor or competing ligand from its target) came out at 277 nM.
The value for `CC(CCN1CCN(S(C)(=O)=O)CC1)(C(=O)NCc1ccccc1OC(F)(F)F)c1ccc(Cl)c(Cl)c1` (centres unmarked) [Example 19, 2-(3,4-Dichloro-phenyl)-4-(4-methanesulfonyl-piperazin-1-yl)-2-methyl-N-(2-trifluoromethoxy-benzyl)-butyramide] was 429 nM; that for `C[C@H]1CN(CCC(C)(C(=O)NCc2ccc(C(F)(F)F)nc2)c2ccc(Cl)c(Cl)c2)CCN1S(C)(=O)=O` (stereo partly drawn) [Example 91, 2-(3,4-Dichloro-phenyl)-4-((S)-4-methanesulfonyl-3-methyl-piperazin-1-yl)-2-methyl-N-(6-trifluoromethyl-pyridin-3-ylmethyl)-butyramide] was 906 nM.
Consider `C[C@@H]1CN(CCC(C)(C(=O)NCc2ccc(C(F)(F)F)cc2)c2ccc(Cl)c(Cl)c2)CCN1S(C)(=O)=O` (stereo partly drawn) [Example 45, 2-(3,4-Dichloro-phenyl)-4-((R)-4-methanesulfonyl-3-methyl-piperazin-1-yl)-2-methyl-N-(4-trifluoromethyl-benzyl)-butyramide], for which the Ki was found to be 33.3 nM.
The value for `C[C@@H]1CN(CCC(C)(C(=O)N(C)Cc2cccc(F)c2)c2ccc(Cl)c(Cl)c2)CCN1S(C)(=O)=O` (stereo partly drawn) [Example 60, 2-(3,4-Dichloro-phenyl)-N-(3-fluoro-benzyl)-4-((R)-4-methanesulfonyl-3-methyl-piperazin-1-yl)-2,N-dimethyl-butyramide] was 130 nM.
For the molecule `C[C@H]1CN(CC[C@](C)(C(=O)NCc2ccc(Cl)c(Cl)c2)c2ccc(Cl)c(Cl)c2)CCN1S(C)(=O)=O` (single isomer, unassigned) [Example 93, (S or R)—N-(3,4-Dichloro-benzyl)-2-(3,4-dichloro-phenyl)-4-((R)-4-methanesulfonyl-3-methyl-piperazin-1-yl)-2-methyl-butyramide], the inhibition constant Ki is 19.2 nM.
The value for `CC(CCN1CCN(S(C)(=O)=O)CC1)(C(=O)N[C@H](CO)c1ccc(Cl)cc1)c1ccc(Cl)c(Cl)c1` (stereo partly drawn) [Example 131, N-[(S)-1-(4-Chloro-phenyl)-2-hydroxy-ethyl]-2-(3,4-dichloro-phenyl)-4-(4-methanesulfonyl-piperazin-1-yl)-2-methyl-butyramide] was 186 nM.
Regarding `CC(CCN1CCN2C(CCS2(=O)=O)C1)(C(=O)N[C@@H](CO)c1ccc(Cl)cc1)c1ccc(Cl)c(Cl)c1` (stereo partly drawn) [Example 136, N-[(R)-1-(4-Chloro-phenyl)-2-hydroxy-ethyl]-2-(3,4-dichloro-phenyl)-4-(1,1-dioxo-hexahydro-1λ^6-thia-5,7a-diaza-inden-5-yl)-2-methyl-butyramide], the Ki stood at 15.4 nM.
The same measure for `C[C@@H]1CN(CCC(C)(C(=O)NCc2cc(C(F)(F)F)ccc2F)c2ccc(Cl)c(Cl)c2)CCN1S(C)(=O)=O` (stereo partly drawn) [Example 46, 2-(3,4-Dichloro-phenyl)-N-(2-fluoro-5-trifluoromethyl-benzyl)-4-((R)-4-methanesulfonyl-3-methyl-piperazin-1-yl)-2-methyl-butyramide]: 99.5 nM.
The same measure for `C[C@@H]1CN(CCC(C)(C(=O)N(C)Cc2ccc(Cl)c(Cl)c2)c2ccc(Cl)c(Cl)c2)CCN1S(C)(=O)=O` (stereo partly drawn) [Example 41, N-(3,4-Dichloro-benzyl)-2-(3,4-dichloro-phenyl)-4-((R)-4-methanesulfonyl-3-methyl-piperazin-1-yl)-2,N-dimethyl-butyramide]: 13.3 nM.
The value for `CC(CCN1CCCN(S(C)(=O)=O)CC1)(C(=O)NCc1ccc(OC(F)(F)F)cc1)c1ccc(Cl)c(Cl)c1` (centres unmarked) [Example 99, 2-(3,4-Dichloro-phenyl)-4-(4-methanesulfonyl-[1,4]diazepan-1-yl)-2-methyl-N-(4-trifluoromethoxy-benzyl)-butyramide] was 128 nM.
Regarding `CN(Cc1ccccc1)C(=O)C(CCN1CCN(S(C)(=O)=O)CC1)c1ccc(Cl)c(Cl)c1` (centres unmarked) [Example 4, N-Benzyl-2-(3,4-dichloro-phenyl)-4-(4-methanesulfonyl-piperazin-1-yl)-N-methyl-butyramide], the Ki was determined as 355 nM.
With `CC(CCN1CCN(S(C)(=O)=O)CC1)(C(=O)NC(c1ccc(F)cc1)C(F)(F)F)c1ccc(Cl)c(Cl)c1` (centres unmarked) [Example 135, 2-(3,4-Dichloro-phenyl)-4-(4-methanesulfonyl-piperazin-1-yl)-2-methyl-N-[2,2,2-trifluoro-1-(4-fluoro-phenyl)-ethyl]-butyramide], the Ki came out at 196 nM.
The value for `C[C@@H]1CN(CCC(C)(C(=O)NCc2cccc(OC(F)F)c2)c2ccc(Cl)c(Cl)c2)CCN1S(C)(=O)=O` (stereo partly drawn) [Example 43, 2-(3,4-Dichloro-phenyl)-N-(3-difluoromethoxy-benzyl)-4-((R)-4-methanesulfonyl-3-methyl-piperazin-1-yl)-2-methyl-butyramide] was 99.9 nM; that for `COc1ccc(C(NC(=O)C(C)(CCN2CCN(S(C)(=O)=O)[C@H](C)C2)c2ccc(Cl)c(Cl)c2)C2CC2)cc1` (stereo partly drawn) [Example 32, N-[Cyclopropyl-(4-methoxy-phenyl)-methyl]-2-(3,4-dichloro-phenyl)-4-((R)-4-methanesulfonyl-3-methyl-piperazin-1-yl)-2-methyl-butyramide] was 16.8 nM.
In the case of `CN(Cc1cccc(F)c1)C(=O)C(C)(CCN1CCCN(S(C)(=O)=O)CC1)c1ccc(Cl)c(Cl)c1` (centres unmarked) [Example 100, 2-(3,4-Dichloro-phenyl)-N-(3-fluoro-benzyl)-4-(4-methanesulfonyl-[1,4]diazepan-1-yl)-2,N-dimethyl-butyramide], the inhibitory constant (Ki) was 96.5 nM.
The value for `C[C@H]1CN(CCC(C)(C(=O)NCc2ccc(Cl)c(F)c2)c2ccc(Cl)c(Cl)c2)CCN1S(C)(=O)=O` (stereo partly drawn) [Example 82, N-(4-Chloro-3-fluoro-benzyl)-2-(3,4-dichloro-phenyl)-4-((S)-4-methanesulfonyl-3-methyl-piperazin-1-yl)-2-methyl-butyramide] was 94.2 nM; that for `CN(Cc1ccc(Cl)c(C(F)(F)F)c1)C(=O)C(C)(CCN1CCCN(S(C)(=O)=O)CC1)c1ccc(Cl)c(Cl)c1` (centres unmarked) [Example 111, N-(4-Chloro-3-trifluoromethyl-benzyl)-2-(3,4-dichloro-phenyl)-4-(4-methanesulfonyl-[1,4]diazepan-1-yl)-2,N-dimethyl-butyramide] was 6.7 nM; that for `C[C@H]1CN(CCC(C)(C(=O)NCc2ccc(Cl)c(C(F)(F)F)c2)c2ccc(Cl)c(Cl)c2)CCN1S(C)(=O)=O` (stereo partly drawn) [Example 84, N-(4-Chloro-3-trifluoromethyl-benzyl)-2-(3,4-dichloro-phenyl)-4-((S)-4-methanesulfonyl-3-methyl-piperazin-1-yl)-2-methyl-butyramide] was 45.2 nM.
The value for `CN(Cc1ccc(Cl)cc1)C(=O)C(C)(CCN1CCCN(S(C)(=O)=O)CC1)c1ccc(Cl)c(Cl)c1` (centres unmarked) [Example 97, N-(4-Chloro-benzyl)-2-(3,4-dichloro-phenyl)-4-(4-methanesulfonyl-[1,4]diazepan-1-yl)-2,N-dimethyl-butyramide] was 29.9 nM.
The value for `CC(CCN1CCN(S(C)(=O)=O)CC1)(C(=O)NCc1ccc(Cl)c(F)c1)c1ccc(Cl)c(Cl)c1` (centres unmarked) [Example 30, N-(4-Chloro-3-fluoro-benzyl)-2-(3,4-dichloro-phenyl)-4-(4-methanesulfonyl-piperazin-1-yl)-2-methyl-butyramide] was 133 nM.
For the molecule `CC(CCN1CCCN(S(C)(=O)=O)CC1)(C(=O)NCc1ccc(Cl)c(Cl)c1)c1ccc(Cl)c(Cl)c1` (centres unmarked) [Example 114, N-(3,4-Dichloro-benzyl)-2-(3,4-dichloro-phenyl)-4-(4-methanesulfonyl-[1,4]diazepan-1-yl)-2-methyl-butyramide], the Ki is 39.9 nM.
With `CN(Cc1ccc(-c2ccncc2)cc1)C(=O)C(CCN1CCN(S(C)(=O)=O)CC1)c1ccc(Cl)c(Cl)c1` (centres unmarked) [Example 2, 2-(3,4-Dichloro-phenyl)-4-(4-methanesulfonyl-piperazin-1-yl)-N-methyl-N-(4-pyridin-4-yl-benzyl)-butyramide], the inhibition constant Ki stood at 315 nM.
